Test results reported in patent publication US9120795B2, “Crystalline form of a β-lactamase inhibitor” (Cubist Pharmaceuticals, Inc., priority 2013, dated 2015).

Assay: Solid form stability at ambient conditions, XRPD
Assay type: physicochemical
Details: sulfate; for transformation of the form at ambient conditions: storage at ambient conditions
Method: X-Ray Powder Diffraction patterns were collected on a Bruker D8 diffractometer using Cu Kα radiation (40 kV, 40 mA), 0-20 goniometer, and divergence of V4 and receiving slits, a Ge monochromator and a Lynxeye detector. The instrument is performance checked using a certified Corundum standard (NIST 1976). The software used for data collection was Diffrac Plus XRD Commander v2.6.1 and the data were analysed and presented using Diffrac Plus EVA v13.0.0.2 or v15.0.0.0. Samples were run under ambient conditions as flat plate specimens using powder as received. The sample was gently packed into a cavity cut into polished, zero-background (510) silicon wafer. The sample was rotated in its own plane during analysis. The details of the data collection are: angular range: 2 to 42 °2θ; step size: 0.05 °2θ; collection time: 0.5 s/step. Amorphous material (˜60 mg) was generated as in Procedure 1. The amorphous material was suspended in different solvent systems (3 mL) at 50° C. A sample was withdrawn after 3 h and 24 h. The final product was filtered after 48 h and analysed by XRPD. The solids isolated were re-analysed again by XRPD after few days at ambient conditions (˜25° C. and ˜40% RH).

Row | SMILES | transformation of the form at ambient conditions | stability of the form (Summary of Forms, Description)
1 | O=C1N2C[C@@H](CC[C@H]2c2nnco2)N1OS(=O)(=O)[O-].[Na+] [Hydrate 3, sodium (2S,5R)-2-(1,3,4-oxadiazol-2-yl)-7-oxo-1,6-diazabicyclo[3.2.1]octan-6-yl sulfate] | metastable and transform to Hydrate 5 or Hydrate 1 | Metastable, suspected mono-hydrate
2 | O=C1N2C[C@@H](CC[C@H]2c2nnco2)N1OS(=O)(=O)[O-].[Na+] [Hydrate 6, sodium (2S,5R)-2-(1,3,4-oxadiazol-2-yl)-7-oxo-1,6-diazabicyclo[3.2.1]octan-6-yl sulfate] | metastable and transform to Hydrate 5 or Hydrate 1 | Metastable, suspected mono-hydrate,
3 | O=C1N2C[C@@H](CC[C@H]2c2nnco2)N1OS(=O)(=O)[O-].[Na+] [Hydrate 5, sodium (2S,5R)-2-(1,3,4-oxadiazol-2-yl)-7-oxo-1,6-diazabicyclo[3.2.1]octan-6-yl sulfate] |  | Metastable, di-hydrate
4 | O=C1N2C[C@@H](CC[C@H]2c2nnco2)N1OS(=O)(=O)[O-].[Na+] [Hydrate 2, sodium (2S,5R)-2-(1,3,4-oxadiazol-2-yl)-7-oxo-1,6-diazabicyclo[3.2.1]octan-6-yl sulfate] |  | Metastable, hexa-hydrate
5 | O=C1N2C[C@@H](CC[C@H]2c2nnco2)N1OS(=O)(=O)[O-].[Na+] [Hydrate 7, sodium (2S,5R)-2-(1,3,4-oxadiazol-2-yl)-7-oxo-1,6-diazabicyclo[3.2.1]octan-6-yl sulfate] |  | Metastable, only isolated as a mixture
6 | O=C1N2C[C@@H](CC[C@H]2c2nnco2)N1OS(=O)(=O)[O-].[Na+] [Hydrate 4, sodium (2S,5R)-2-(1,3,4-oxadiazol-2-yl)-7-oxo-1,6-diazabicyclo[3.2.1]octan-6-yl sulfate] | metastable and transforms to Hydrate 1 | Metastable, suspected hemi-hydrate
